# Source: patent US12048691B2 (SPERO THERAPEUTICS, INC., priority 2020, dated 2024)
# Where a name gives a salt, the structure may show the parent alone. Read-outs that look alike come from different tables or passages of the source. Marks after values point to notes of the source that are not given here.
# How the values were obtained:
# [1] = system: Enterobacterales overproducing AmpC; assay: Broth microdilution susceptibility of isolates overexpressing AmpC; assay type: cell-based
# Method: (§1) Frozen-form broth microdilution panels were manufactured by JMI Laboratories and contained cation-adjusted Mueller-Hinton broth. Quality assurance was performed by sterility checks, colony counts, and testing CLSI recommended quality control reference strains.
# [2] = system: P. aeruginosa isolates that overproduced AmpC; assay: as above; assay type: cell-based; conditions: P. aeruginosa (32)
# Method: as §1
# [3] = system: E. coli; assay: Broth microdilution MIC against characterized subsets of UTI E. coli (2018-2020); assay type: cell-based
# Description: Isolates were collected from medical centers in all 9 US Census Regions and tested by broth microdilution. MIC interpretation was based on CLSI. Isolates that met MIC criteria were subjected to genome sequencing, followed by screening of extended-spectrum b-lactamase (ESBL) genes and epidemiology typing (MLST).
# [4] = system: E. coli; assay: Broth microdilution against US UTI pathogens 2019-2020; assay type: cell-based; conditions: E. coli (2,339); for % susceptible; CLSI: cefuroxime: oral breakpoint
# Method: (§2) This study assessed the in vitro activity of tebipenem and comparator agents against Enterobacterales (ENT) responsible for UTIs in the US during 2019-2020. A total of 3,576 ENT recovered from urine samples during the 2019-2020 STEWARD Surveillance Program were included in the study. Isolates were collected from medical centers in all 9 US Census Regions and were centrally tested for susceptibility by reference broth microdilution method. MIC interpretation was performed based on CLSI criteria.
# [5] = system: Enterobacterales (ENT); assay: as above; assay type: cell-based; conditions: All (3,567); for % susceptible; CLSI: cefuroxime: oral breakpoint
# Method: as §2
# [6] = system: K. pneumoniae; assay: as above; assay type: cell-based; conditions: K. pneumoniae (511); for % susceptible; CLSI: cefuroxime: oral breakpoint
# Method: as §2
# [7] = system: P. mirabilis; assay: as above; assay type: cell-based; conditions: for % susceptible; CLSI: cefuroxime: oral breakpoint
# Method: as §2
# [8] = Particle size distribution of tebipenem pivoxil HBr batches by sieve method; assay type: physicochemical
# [9] = system: bacteremia secondary to cUTI/AP; assay: Efficacy in patients with cUTI or acute pyelonephritis and associated bacteremia; assay type: in vivo, human
# Description: The objective of this analysis was to evaluate the efficacy of TBP-PI-HBr in the subset of patients with associated bacteremia from a study of patients with either cUTI or acute pyelonephritis.
# [10] = system: E. coli; assay: Susceptibility of E. coli from urinary tract infections, 18 EU countries 2020 (STEWARD); assay type: cell-based
# Method: The study assessed the prevalence of resistance and evaluated the activity of oral tebipenem (TBP) and comparators against EC from urinary tract infections.
# Results were interpreted using EUCAST criteria. […] ESBL phenotypes were determined by CLSI criteria and sequenced to identify CTX-M-15 genotype and clonal complex ST131.
# [11] = Enterobacterales (36), read-out: MIC50
# [12] = Enterobacterales (36), read-out: MIC90
# [13] = Escherichia coli, CTX-M a, read-out: MIC50
# [14] = Escherichia coli, CTX-M a, read-out: MIC90
# [15] = Escherichia coli, ESBL (360), read-out: MIC50
# [16] = Escherichia coli, ESBL (360), read-out: MIC90
# [17] = Escherichia coli, Non-ESBL (2035), read-out: MIC50
# [18] = Escherichia coli, Non-ESBL (2035), read-out: MIC90
# [19] = Enterobacterales (36), second cefuroxime line, footnote c (not given)
compound,measurement,setting,value
C[C@H]1[C@H](NC(=O)/C(=N\OC(C)(C)C(=O)O)c2csc(N)n2)C(=O)N1S(=O)(=O)O [Aztreonam],CLSI %1,[1]; Enterobacterales (36),14.3%
same,CLSI % R,[1]; Enterobacterales (36),54.3%
same,CLSI % S,[1]; Enterobacterales (36),31.4%
same,MIC50,[1]; [11],> 16 µg/mL
same,MIC90,[1]; [12],> 16 µg/mL
same,CLSI %1,[2],31.2%
same,CLSI % R,[2],50.0%
same,CLSI % S,[2],18.8%
"Cc1nnc(SCC2=C(C(=O)O)N3C(=O)[C@@H](NC(=O)Cn4cnnn4)[C@H]3SC2)s1 [CFZ, cefazolin]",% susceptible by CLSI M100 criteria,[3]; CTX-M a,0.0%
same,% susceptible by CLSI M100 criteria,[3]; ESBL (360),0.6%
same,MIC50,[3]; [13],> 32 µg/mL
same,MIC90,[3]; [14],> 32 µg/mL
same,MIC50,[3]; [15],> 32 µg/mL
same,MIC90,[3]; [16],> 32 µg/mL
same,MIC50,[3]; [17],2 µg/mL
same,MIC90,[3]; [18],8 µg/mL
same,% susceptible by CLSI M100 criteria,[3]; Non-ESBL (2035),96.4%
CO/N=C(\C(=O)N[C@@H]1C(=O)N2C(C(=O)[O-])=C(C[N+]3(C)CCCC3)CS[C@H]12)c1csc(N)n1 [Cefepime],MIC50,[1],0.5 µg/mL
same,MIC90,[1],128 µg/mL
same,CLSI %1,[2],40.6%
same,CLSI % R,[2],12.5%
same,CLSI % S,[2],46.9%
"CO/N=C(\C(=O)N[C@@H]1C(=O)N2C(C(=O)O)=C(CSc3nc(=O)c(=O)[nH]n3C)CS[C@H]12)c1csc(N)n1 [Ceftriaxone, ceftriaxone]",% susceptible by CLSI M100 criteria,[3]; CMYb (33),0.0%
same,% susceptible by CLSI M100 criteria,[3]; CTX-M a,0.0%
same,% susceptible by CLSI M100 criteria,[3]; DHA(7),28.6%
same,% susceptible by CLSI M100 criteria,[3]; ESBL (360),6.4%
same,MIC50,[3]; [13],> 8 µg/mL
same,MIC90,[3]; [14],> 8 µg/mL
same,MIC50,"[3]; Escherichia coli, DHA(7), read-out: MIC50",2 µg/mL
same,MIC50,[3]; [15],> 8 µg/mL
same,MIC90,[3]; [16],> 8 µg/mL
same,MIC50,[3]; [17],≤ 0.06 µg/mL
same,MIC90,[3]; [18],0.12 µg/mL
same,% susceptible by CLSI M100 criteria,[3]; Non-ESBL (2035),100%
same,% susceptible by CLSI M100 criteria,[3]; Non-ST131 (203),37.9%
same,% susceptible by CLSI M100 criteria,[3]; ST131 (222),20.3%
same,MIC50,[1],> 8 µg/mL
same,MIC90,[1],> 8 µg/mL
same,CLSI %1,[1]; Enterobacterales (36),13.9%
same,CLSI % R,[1]; Enterobacterales (36),63.9%
same,CLSI % S,[1]; Enterobacterales (36),22.2%
CO/N=C(\C(=O)N[C@@H]1C(=O)N2C(C(=O)O)=C(COC(N)=O)CS[C@H]12)c1ccco1 [Cefuroxime],MIC50,[1],> 64 µg/mL
same,MIC90,[1],> 64 µg/mL
same,CLSI %1,[1]; Enterobacterales (36),5.6%
same,CLSI % R,[1]; Enterobacterales (36),94.4%
same,CLSI % S,[1]; Enterobacterales (36),0.0^b %
same,CLSI %1,[1]; [19],5.6%
same,CLSI % R,[1]; [19],94.4%
same,CLSI % S,[1]; [19],0.0^c %
same,% susceptible; CLSI,[4],(63.1) %
same,% susceptible; CLSI,[5],(63.5) %
same,% susceptible; CLSI,[6],(75.3) %
same,% susceptible; CLSI,[7]; P. mirabilis (235),(94.4) %
same,% susceptible; CLSI,"[7]; P. mirabilis (235), listed as cefuroxime",94.4%
C[C@@H](O)[C@H]1C(=O)N2C(C(=O)O)=C(SCCN=CN)C[C@H]12 [Imipenem],MIC50,[1],0.25 µg/mL
same,MIC90,[1],0.5 µg/mL
same,CLSI %1,[1]; Enterobacterales (36),0.0%
same,CLSI % R,[1]; Enterobacterales (36),0.0%
same,CLSI % S,[1]; Enterobacterales (36),100.0%
same,MIC50,[1]; Enterobacterales (36),0.25 μ/ml
same,MIC90,[1]; Enterobacterales (36),0.5 μ/ml
same,MIC range,[1]; Enterobacterales (36),≤0.12 to 1 μ/ml
same,CLSI %1,[2],0.0%
same,CLSI % R,[2],3.1%
same,CLSI % S,[2],96.9%
same,MIC range,[2],0.5 to 8 μ/ml
"Br.C[C@@H](O)[C@H]1C(=O)N2C(C(=O)OCOC(=O)C(C)(C)C)=C(SC3CN(C4=NCCS4)C3)[C@H](C)[C@H]12 [Lot 1, Comil-ed]","particle size distribution, 45 um<",[8],35%
same,"particle size distribution, 75 um<",[8],27%
same,"particle size distribution, 106 um<",[8],16%
same,"particle size distribution, 150 um<",[8],1%
same,"particle size distribution, 300 um<",[8],0%
same,"particle size distribution, <45 um",[8],21%
Br.C[C@@H](O)[C@H]1C(=O)N2C(C(=O)OCOC(=O)C(C)(C)C)=C(SC3CN(C4=NCCS4)C3)[C@H](C)[C@H]12 [Lot 2],"particle size distribution, 45 um<",[8],46%
same,"particle size distribution, 75 um<",[8],6%
same,"particle size distribution, 106 um<",[8],6%
same,"particle size distribution, 150 um<",[8],2%
same,"particle size distribution, 300 um<",[8],0%
same,"particle size distribution, <45 um",[8],40%
"C[C@@H](O)[C@H]1C(=O)N2C(C(=O)OCOC(=O)C(C)(C)C)=C(SC3CN(C4=NCCS4)C3)[C@H](C)[C@H]12 [Tebipenem pivoxil HBr, tebipenem pivoxil hydrobromide]",Clinical cure rate,[9]; EOT,100%
same,Clinical cure rate,[9]; TOC,97.9%
same,Overall response rate,[9]; end-of-treatment (EOT),93.6%
same,Clinical cure rate,[9]; late-follow-up (LFU) visit,approximately 89%
same,Overall response rate,[9]; test-of-cure (TOC),72.3%
C[C@@H](O)[C@H]1C(=O)N2C(C(=O)OCOC(=O)C(C)(C)C)=C(SC3CN(C4=NCCS4)C3)[C@H](C)[C@H]12 [Tebipenem pivoxil],MIC50,[3],0.03/- (-) μg/mL
CN(C)[C@@H]1C(O)=C(C(N)=O)C(=O)[C@@]2(O)C(O)=C3C(=O)c4c(O)cccc4[C@@](C)(O)[C@H]3C[C@@H]12 [Tetracycline],CLSI %1,[1]; Enterobacterales (36),5.6%
same,CLSI % R,[1]; Enterobacterales (36),44.4%
same,CLSI % S,[1]; Enterobacterales (36),50.0%
same,MIC50,[1]; [11],4 µg/mL
same,MIC90,[1]; [12],> 16 µg/mL
CN(C)c1cc(NC(=O)CNC(C)(C)C)c(O)c2c1C[C@H]1C[C@H]3[C@H](N(C)C)C(O)=C(C(N)=O)C(=O)[C@@]3(O)C(O)=C1C2=O [Tigecycline],MIC50,[1],0.25 µg/mL
same,MIC90,[1],1 µg/mL
same,CLSI %1,[1]; Enterobacterales (36),5.6%
same,CLSI % R,[1]; Enterobacterales (36),0.0%
same,CLSI % S,[1]; Enterobacterales (36),94.4^d %
same,MIC range,[1]; Enterobacterales (36),≤0.06 to 4 μ/ml
CC1(C)S[C@@H]2[C@H](/N=C/N3CCCCCC3)C(=O)N2[C@H]1C(=O)O [mecillinam],MIC90,"[10]; Escherichia coli, all E. coli (764) from UTIs",> 8 µg/mL
same,Susceptibility rate,"[10]; all E. coli, EUCAST criteria",88.0%
Piperacillin-tazobactam,CLSI %1,[1]; Enterobacterales (36),19.4%
same,CLSI % R,[1]; Enterobacterales (36),33.3%
same,CLSI % S,[1]; Enterobacterales (36),47.2%
same,MIC50,[1]; Enterobacterales (36),32 μ/ml
same,MIC90,[1]; Enterobacterales (36),>128 μ/ml
same,CLSI %1,[2],40.6%
same,CLSI % R,[2],53.1%
same,CLSI % S,[2],6.2%
same,MIC50,[2],128 μ/ml
same,MIC90,[2],>128 μ/ml
Tebipenem pivoxil,MIC50,[7],0.12 mg/L
same,MIC90,[7],0.12 mg/L
same,concentration inhibiting all PM,[7],0.25 mg/L
amoxicillin-clavulanate (2:1) [A/C],% susceptible by CLSI M100 criteria,[3]; CTX-M a,57.6%
same,MIC50,[3]; CTX-M a,8 µg/mL
same,MIC90,[3]; CTX-M a,16 µg/mL
same,% susceptible by CLSI M100 criteria,[3]; ESBL (360),47.2%
same,MIC50,[3]; ESBL (360),16 µg/mL
same,MIC90,[3]; ESBL (360),32 µg/mL
same,% susceptible by CLSI M100 criteria,[3]; Non-ESBL (2035),86.6%
same,MIC50,[3]; Non-ESBL (2035),4 µg/mL
same,MIC90,[3]; Non-ESBL (2035),16 µg/mL
same,CLSI %1,[1]; Enterobacterales (36),11.1%
same,CLSI % R,[1]; Enterobacterales (36),86.1%
same,CLSI % S,[1]; Enterobacterales (36),2.8%
same,MIC50,[1]; Enterobacterales (36),>32 μ/ml
same,MIC90,[1]; Enterobacterales (36),>32 μ/ml
same,MIC50,[4],4000 µg/mL
same,MIC90,[4],16000 µg/mL
same,% susceptible; CLSI,[4],(80.8) %
same,MIC50,[5],4000 µg/mL
same,MIC90,[5],32000 µg/mL
same,% susceptible; CLSI,[5],(76.1) %
same,MIC50,[6],2000 µg/mL
same,MIC90,[6],16000 µg/mL
same,% susceptible; CLSI,[6],(86.7) %
same,MIC50,[7]; P. mirabilis (235),1/1 mg/mL
same,MIC90,[7]; P. mirabilis (235),1/1 mg/mL
same,% susceptible; CLSI,[7]; P. mirabilis (235),(96.6) %
same,% susceptible; CLSI,"[7]; P. mirabilis (235), listed as amoxicillin/clavulanate",96.6%
